Experimental data as given in patent publication US20240182420A1, “MICROBIOCIDAL ISONICOTINIC AMIDE DERIVATIVES” (SYNGENTA CROP PROTECTION AG, priority 2021, published 2024).

Assays:
[1] = system: Botryotinia fuckeliana syn. Botrytis cinerea; test: Botryotinia fuckeliana syn. Botrytis cinerea (gray mould), liquid culture growth inhibition; format: cell-based; conditions: PDB nutrient broth, 24° C., 72 hrs, photometric, vs untreated control
Description: (§1) Conidia of the fungus from cryogenic storage were directly mixed into nutrient broth (PDB potato dextrose broth). A DMSO solution of the test compounds was placed into a microtiter plate (96-well format) and the nutrient broth containing the fungal spores was added to it. The test plates were incubated at 24° C. and the inhibition of growth was determined photometrically after 72 hrs.

[2] = system: Botryotinia fuckeliana syn. Botrytis cinerea; test: Botryotinia fuckeliana syn. Botrytis cinerea (grey mold on tomato), tomato plants; format: in vivo; conditions: tomato plants cv. Roter Gnom, inoculated two days after application, leaf area covered by disease 5-6 days after application
Description: 4-week old tomato plants cv. Roter Gnom are treated sprayed in a spray chamber with the formulated test compound diluted in water. The test plants are inoculated by spraying them with a spore suspension two days after application. The inoculated test plants are incubated at 20° C. and 95% rh in a greenhouse and the percentage leaf area covered by disease is assessed when an appropriate level of disease appears on untreated check plants (5-6 days after application).

[3] = system: Glomerella lagenarium syn Colletotrichum lagenarium; test: Glomerella lagenarium syn. Colletotrichum lagenarium (anthracnose), liquid culture growth inhibition; format: cell-based; conditions: Colletotrichum orbiculare, PDB nutrient broth, 24° C., 72 hrs, 620 nm, vs untreated control
Description: as §1, with “hrs at 620 nm.” for “hrs.”

[4] = system: Monographella nivalis syn. Microdochium nivale, Fusarium nivale; test: Monographella nivalis syn. Microdochium nivale (snow mould, foot rot), liquid culture growth inhibition; format: cell-based; conditions: PDB nutrient broth, 24° C., 72 hrs, 620 nm, vs untreated control
Description: as §1, with “hrs at 620 nm.” for “hrs.”

For Cc1cccc(Oc2cnc(Cl)cc2C(=O)NCCc2ccc(Cl)cc2Cl)c1 [Compound 1.4, 2-chloro-N-[2-(2,4-dichlorophenyl)ethyl]-5-(3-methylphenoxy)pyridine-4-carboxamide], the inhibition of growth at 20 ppm [1] was at least 80% and the pest or weed control at 200 ppm [2] was at least 50%.

For O=C(NCCc1ccc(Cl)cc1Cl)c1c(Cl)cncc1Oc1cccc(C2CC2)c1 [Compound 1.21, 3-chloro-5-(3-cyclopropyl-phenoxy)-N-[2-(2,4-dichlorophenyl)ethyl]pyridine-4-carboxamide], the inhibition of growth at 20 ppm [1] was at least 80%, the pest or weed control at 200 ppm [2] was at least 50% and the inhibition of growth at 20 ppm [3] was at least 80%.

Cc1ccc(C(F)CNC(=O)c2cc(Cl)ncc2Oc2cccc(C3CC3)c2)c(C)c1 (centres unmarked) [Compound 1.78, 2-chloro-5-(3-cyclopropyl-phenoxy)-N-[2-(2,4-dimethylphenyl)-2-fluoro-ethyl]pyridine-4-carboxamide] showed an inhibition of growth at 20 ppm [1] of at least 80%, an inhibition of growth at 20 ppm [3] of at least 80% and an inhibition of growth at 20 ppm [4] of at least 80%.

Work on O=C(NCC(F)c1ccc(F)cc1F)c1cc(Cl)ncc1Oc1cccc(C2CC2)c1 (centres unmarked) [Compound 1.58, 2-chloro-5-(3-cyclopropyl-phenoxy)-N-[2-(2,4-difluorophenyl)-2-fluoro-ethyl]pyridine-4-carboxamide] yielded an inhibition of growth at 20 ppm [1] of at least 80%, a pest or weed control at 200 ppm [2] of at least 50% and an inhibition of growth at 20 ppm [3] of at least 80%.

With C#Cc1cccc(Oc2cnc(C)cc2C(=O)NCC(F)c2ccc(C)cc2C)c1 (centres unmarked) [Compound 1.38, N-[2-(2,4-dimethylphenyl)-2-fluoro-ethyl]-5-(3-ethynylphenoxy)-2-methyl-pyridine-4-carboxamide] the inhibition of growth at 20 ppm [1] was at least 80% and the pest or weed control at 200 ppm [2] was at least 50%.

O=C(NCC(F)c1ccc(Cl)cc1Cl)c1ccncc1Oc1cccc(C2CC2)c1 (centres unmarked) [Compound 1.11, 3-(3-cyclopropyl-phenoxy)-N-[2-(2,4-dichlorophenyl)-2-fluoro-ethyl]pyridine-4-carboxamide] was tested, and the pest or weed control at 200 ppm [2] was at least 50% and the inhibition of growth at 20 ppm [3] was at least 80%.

COc1ccc(CCNC(=O)c2cc(Cl)ncc2Oc2cccc(C3CC3)c2)cc1 [Compound 1.35, 2-chloro-5-(3-cyclopropyl-phenoxy)-N-[2-(4-methoxyphenyl)ethyl]pyridine-4-carboxamide] showed an inhibition of growth at 20 ppm [1] of at least 80%, a pest or weed control at 200 ppm [2] of at least 50% and an inhibition of growth at 20 ppm [3] of at least 80%.

With O=C(NCC1(c2ccc(F)cc2)CCC1)c1cc(Cl)ncc1Oc1cccc(C2CC2)c1 [Compound 1.28, 2-chloro-5-(3-cyclopropyl-phenoxy)-N-[[1-(4-fluorophenyl)cyclobutyl]methyl] pyridine-4-carboxamide] the inhibition of growth at 20 ppm [4] was at least 80%.

In the case of C#Cc1ccc(C(F)CNC(=O)c2cc(Cl)ncc2Oc2cccc(C3CC3)c2)c(F)c1 (centres unmarked) [Compound 1.82, 2-chloro-5-(3-cyclopropyl-phenoxy)-N-[2-(4-ethynyl-2-fluoro-phenyl)-2-fluoro-ethyl]pyridine-4-carboxamide], the inhibition of growth at 20 ppm [1] is reported as at least 80%, the pest or weed control at 200 ppm [2] is reported as at least 50% and the inhibition of growth at 20 ppm [3] is reported as at least 80%.

In the case of O=C(NCC(F)c1ccc(Cl)cc1Cl)c1cc(Cl)ncc1Oc1cccc(C2CC2)c1 (centres unmarked) [Compound 1.16, 2-chloro-5-(3-cyclopropyl-phenoxy)-N-[2-(2,4-dichlorophenyl)-2-fluoro-ethyl]pyridine-4-carboxamide], the inhibition of growth at 20 ppm [1] is reported as at least 80%, the pest or weed control at 200 ppm [2] is reported as at least 50% and the inhibition of growth at 20 ppm [3] is reported as at least 80%.

O=C(NCC(F)c1ccc(Cl)cc1Cl)c1cc(C(F)(F)F)ncc1Oc1cccc(C2CC2)c1 (centres unmarked) [Compound 1.9, 5-(3-cyclopropyl-phenoxy)-N-[2-(2,4-dichlorophenyl)-2-fluoro-ethyl]-2-(trifluoromethyl) pyridine-4-carboxamide] gave an inhibition of growth at 20 ppm [1] of at least 80%, a pest or weed control at 200 ppm [2] of at least 50% and an inhibition of growth at 20 ppm [3] of at least 80%.

In the case of C#Cc1cccc(Oc2cnc(Br)cc2C(=O)NCC(F)c2ccc(C)cc2C)c1 (centres unmarked) [Compound 1.43, 2-bromo-N-[2-(2,4-dimethylphenyl)-2-fluoro-ethyl]-5-(3-ethynylphenoxy) pyridine-4-carboxamide], the inhibition of growth at 20 ppm [1] is reported as at least 80%, the pest or weed control at 200 ppm [2] is reported as at least 50% and the inhibition of growth at 20 ppm [3] is reported as at least 80%.

O=C(NC1(Cc2ccccc2)CC1)c1cc(Cl)ncc1Oc1cccc(C2CC2)c1 [Compound 1.49, N-(1-benzylcyclopropyl)-2-chloro-5-(3-cyclopropylphenoxy) pyridine-4-carboxamide] gave an inhibition of growth at 20 ppm [4] of at least 80%.

Work on COc1ccc(CCNC(=O)c2cc(Cl)ncc2Oc2ccccc2)cc1OC [Compound 1.44, 2-chloro-N-[2-(3,4-dimethoxyphenyl)ethyl]-5-phenoxy-pyridine-4-carboxamide] yielded an inhibition of growth at 20 ppm [4] of at least 80%.

O=C(NCCc1ccc(Cl)cc1Cl)c1cc(Cl)ncc1Oc1cccc(C2CC2)c1 [Compound 1.15, 2-chloro-5-(3-cyclopropyl-phenoxy)-N-[2-(2,4-dichlorophenyl)ethyl]pyridine-4-carboxamide] showed an inhibition of growth at 20 ppm [1] of at least 80%, a pest or weed control at 200 ppm [2] of at least 50% and an inhibition of growth at 20 ppm [3] of at least 80%.

With O=C(NCC(F)c1ccc(Cl)cc1Cl)c1c(F)cncc1Oc1cccc(C2CC2)c1 (centres unmarked) [Compound 1.6, 3-(3-cyclopropyl-phenoxy)-N-[2-(2,4-dichlorophenyl)-2-fluoro-ethyl]-5-fluoro-pyridine-4-carboxamide] the inhibition of growth at 20 ppm [1] was at least 80%, the pest or weed control at 200 ppm [2] was at least 50% and the inhibition of growth at 20 ppm [3] was at least 80%.

Work on N#Cc1ccc(Oc2cnc(Cl)cc2C(=O)NCC(F)c2ccc(Cl)cc2Cl)cc1 (centres unmarked) [Compound 1.63, 2-chloro-5-(4-cyanophenoxy)-N-[2-(2,4-dichlorophenyl)-2-fluoro-ethyl]pyridine-4-carboxamide] yielded an inhibition of growth at 20 ppm [3] of at least 80% and an inhibition of growth at 20 ppm [4] of at least 80%.

CS(=O)(=O)c1cc(C(=O)NCC(F)c2ccc(Cl)cc2Cl)c(Oc2cccc(C3CC3)c2)cn1 (centres unmarked) [Compound 1.10, 5-(3-cyclopropyl-phenoxy)-N-[2-(2,4-dichlorophenyl)-2-fluoro-ethyl]-2-methylsulfonyl-pyridine-4-carboxamide] gave an inhibition of growth at 20 ppm [1] of at least 80%, a pest or weed control at 200 ppm [2] of at least 50% and an inhibition of growth at 20 ppm [3] of at least 80%.

Cc1cc(C)cc(CCNC(=O)c2cc(Cl)ncc2Oc2cccc(C3CC3)c2)c1 [Compound 1.50, 2-chloro-5-(3-cyclopropylphenoxy)-N-[2-(3,5-dimethylphenyl)ethyl]pyridine-4-carboxamide] showed an inhibition of growth at 20 ppm [4] of at least 80%.

COc1cccc(Oc2cnc(Cl)cc2C(=O)NCC(F)c2ccc(Cl)cc2Cl)c1 (centres unmarked) [Compound 1.61, 2-chloro-N-[2-(2,4-dichlorophenyl)-2-fluoro-ethyl]-5-(3-methoxyphenoxy) pyridine-4-carboxamide] gave an inhibition of growth at 20 ppm [1] of at least 80%, a pest or weed control at 200 ppm [2] of at least 50% and an inhibition of growth at 20 ppm [3] of at least 80%.

With Cc1ccccc1CCNC(=O)c1cc(Cl)ncc1Oc1cccc(C2CC2)c1 [Compound 1.36, 2-chloro-5-(3-cyclopropyl-phenoxy)-N-[2-(o-tolyl)ethyl]pyridine-4-carboxamide] the inhibition of growth at 20 ppm [4] was at least 80%.

For O=C(NCC(F)c1ccc(Cl)cc1Cl)c1cc(C2CC2)ncc1Oc1cccc(C2CC2)c1 (centres unmarked) [Compound 1.22, 2-cyclopropyl-5-(3-cyclopropyl-phenoxy)-N-[2-(2,4-dichlorophenyl)-2-fluoro-ethyl]pyridine-4-carboxamide], the inhibition of growth at 20 ppm [1] was at least 80%, the pest or weed control at 200 ppm [2] was at least 50% and the inhibition of growth at 20 ppm [3] was at least 80%.

With Cc1ccc(C(F)CNC(=O)c2cc(C)ncc2Oc2cccc(C3CC3)c2)c(Cl)c1 (centres unmarked) [Compound 1.60, N-[2-(2-chloro-4-methyl-phenyl)-2-fluoro-ethyl]-5-(3-cyclopropyl-phenoxy)-2-methyl-pyridine-4-carboxamide] the inhibition of growth at 20 ppm [1] was at least 80%, the pest or weed control at 200 ppm [2] was at least 50% and the inhibition of growth at 20 ppm [3] was at least 80%. For the same molecule, the inhibition of growth at 20 ppm [4] was at least 80%.

In the case of O=C(NCC(F)c1ccc(Cl)cc1Cl)c1c(Oc2cccc(C3CC3)c2)cncc1Oc1cccc(C2CC2)c1 (centres unmarked) [Compound 1.84, 3,5-bis(3-cyclopropyl-phenoxy)-N-[2-(2,4-dichlorophenyl)-2-fluoro-ethyl]pyridine-4-carboxamide], the inhibition of growth at 20 ppm [1] is reported as at least 80%, the pest or weed control at 200 ppm [2] is reported as at least 50% and the inhibition of growth at 20 ppm [3] is reported as at least 80%. It also gave an inhibition of growth at 20 ppm [4] of at least 80%.

Cc1cccc(Oc2cnc(Cl)cc2C(=O)NCCc2cccc(Cl)c2)c1 [Compound 1.46, 2-chloro-N-[2-(3-chlorophenyl)ethyl]-5-(3-methylphenoxy) pyridine-4-carboxamide] gave an inhibition of growth at 20 ppm [3] of at least 80% and an inhibition of growth at 20 ppm [4] of at least 80%.

In the case of COc1cncc(Oc2cccc(C3CC3)c2)c1C(=O)NCC(F)c1ccc(Cl)cc1Cl (centres unmarked) [Compound 1.91, 3-(3-cyclopropyl-phenoxy)-N-[2-(2,4-dichlorophenyl)-2-fluoro-ethyl]-5-methoxy-pyridine-4-carboxamide], the inhibition of growth at 20 ppm [1] is reported as at least 80%, the pest or weed control at 200 ppm [2] is reported as at least 50% and the inhibition of growth at 20 ppm [3] is reported as at least 80%.

CCc1ccc(C(F)CNC(=O)c2cc(Cl)ncc2Oc2cccc(C3CC3)c2)c(F)c1 (centres unmarked) [Compound 1.80, 2-chloro-5-(3-cyclopropyl-phenoxy)-N-[2-(4-ethyl-2-fluoro-phenyl)-2-fluoro-ethyl]pyridine-4-carboxamide] was tested, and the inhibition of growth at 20 ppm [1] was at least 80%, the pest or weed control at 200 ppm [2] was at least 50% and the inhibition of growth at 20 ppm [3] was at least 80%.
